Our source for the IC50 and EC50 values is US9353091B2 (priority 2009, dated 2016).

As a reminder, the IC50 is the concentration that gives 50% inhibition. Lower therefore signals higher potency. A word on the EC50: it is the concentration at which the effect is half-maximal. Lower therefore signals greater potency.

For test [1], the target named is T1, HCV polymerase 1A (Δ21 NS5B) (Hepatitis C virus genotype 1a, UniProt P27958).
T1 construct: 20 to 50 nM Δ21 NS5B
In words: HCV Polymerase Inhibition Assay (1a). In kind it is biochemical. Here is the method: (§1) Reaction volume was 50 μL. The reaction was terminated by the addition of 1 volume of 4 mM spermine in 10 mM Tris-Cl pH 8.0, 1 mM EDTA. After incubation for at least 15 minutes at room temperature, the precipitated RNA was captured by filtering through a GF/B filter (Millipore) in a 96 well format. The filter plate was washed three times with 200 μL, each of 2 mM spermine, 10 mM Tris-Cl pH 8.0, 1 mM EDTA, and 2 times with ethanol. After air-drying, 30 μL, of Microscint 20 scintillation cocktail (Packard) was added to each well, and the retained cpm were determined by scintillation counting. […] Retained cpm were plotted vs. inhibitor concentration and fit to equation 1 using non-linear regression (ref. 1) to obtain the IC50 values: Retained cpm=A[sqrt{(IC50+It−Et)^2+4*IC50*Et}−(IC50+It−Et)]
(§2) Ref. Morrison, J. F. and S. R. Stone. 1985. Approaches to the study and analysis of the inhibition of enzymes by slow- and tight-binding inhibitors. Comments Mol. Cell. Biophys. 2: 347-368.
(§3) The sequence of the template RNA used was: 5′-[…] […] […] […] […] […] […] […] […] […] […] […] […] […] […] […] […]-3′ (SEQ ID NO: 1)

Test [2] concerns the target T2, HCV polymerase 1B (Δ21 NS5B) (Hepatitis C virus genotype 1b, UniProt P26663).
T2 construct: 20 to 50 nM Δ21 NS5B
In words: HCV Polymerase Inhibition Assay (1b). In kind it is biochemical. The protocol: as §1, §2, §3

Test [3] deals with genotype 1a-H77 subgenomic replicon cell line. In words: HCV Polymerase Replicon Assay (genotype 1a-H77, luciferase reporter). In kind it is cell-based. As to conditions: Hepatitis C virus, 72 h, 1a-H77 replicon, three days. Background: A replicon is a self-replicating genome or part of one, used to study replication in cells.
Test [4] relates to genotype 1b-Con1 subgenomic replicon cell line. In words: HCV Polymerase Replicon Assay (genotype 1b-Con1, luciferase reporter). In kind it is cell-based. The note with it: Hepatitis C virus, 72 h, 1b-Con1 replicon, three days.

T1 sequence (P27958 2421-2990, stated change not applied): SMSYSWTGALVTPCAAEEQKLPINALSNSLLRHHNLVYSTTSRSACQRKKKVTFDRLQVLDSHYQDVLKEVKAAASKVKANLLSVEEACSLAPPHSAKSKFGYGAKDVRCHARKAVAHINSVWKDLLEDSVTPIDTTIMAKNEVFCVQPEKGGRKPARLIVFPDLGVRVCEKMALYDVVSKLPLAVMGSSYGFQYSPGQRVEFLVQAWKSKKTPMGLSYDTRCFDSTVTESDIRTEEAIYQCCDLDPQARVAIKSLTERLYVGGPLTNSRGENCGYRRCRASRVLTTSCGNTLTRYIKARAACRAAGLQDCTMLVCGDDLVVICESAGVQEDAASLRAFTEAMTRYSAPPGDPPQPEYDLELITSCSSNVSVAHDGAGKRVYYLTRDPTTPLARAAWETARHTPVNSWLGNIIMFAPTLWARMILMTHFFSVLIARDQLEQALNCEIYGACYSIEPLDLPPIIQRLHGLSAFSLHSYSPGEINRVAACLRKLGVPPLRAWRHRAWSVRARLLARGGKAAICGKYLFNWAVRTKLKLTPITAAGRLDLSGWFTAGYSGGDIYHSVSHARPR
T2 sequence (P26663 2420-2989, stated change not applied): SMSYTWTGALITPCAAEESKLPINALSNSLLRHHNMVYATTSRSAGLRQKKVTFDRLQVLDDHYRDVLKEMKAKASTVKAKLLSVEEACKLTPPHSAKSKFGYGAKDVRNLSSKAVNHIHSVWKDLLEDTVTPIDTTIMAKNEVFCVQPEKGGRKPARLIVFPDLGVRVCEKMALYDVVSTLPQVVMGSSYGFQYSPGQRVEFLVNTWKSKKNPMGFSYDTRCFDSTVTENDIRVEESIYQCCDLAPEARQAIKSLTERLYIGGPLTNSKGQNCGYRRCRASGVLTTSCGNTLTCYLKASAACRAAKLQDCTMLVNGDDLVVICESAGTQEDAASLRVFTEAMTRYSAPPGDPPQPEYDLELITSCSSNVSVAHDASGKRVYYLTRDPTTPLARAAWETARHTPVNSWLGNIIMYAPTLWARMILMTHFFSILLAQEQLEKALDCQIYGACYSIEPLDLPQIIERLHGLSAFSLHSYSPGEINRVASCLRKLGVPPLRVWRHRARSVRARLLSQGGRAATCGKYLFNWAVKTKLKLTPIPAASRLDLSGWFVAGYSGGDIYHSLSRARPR

As for `COc1c(-c2c[nH]c(=O)[nH]c2=O)cc(-c2ccc3cc(NS(C)(=O)=O)ccc3c2)cc1C(C)(C)C` [compound 1, N-(6-(3-tert-butyl-5-(2,4-dioxo-1,2,3,4-tetrahydropyrimidin-5-yl)-4-methoxyphenyl)naphthalen-2-yl)methanesulfonamide], the IC50 in test [1] and in test [2] was 0.1 to 1 µM each time.

`COc1c(-c2ccc3c(c2)CC=C3CNS(C)(=O)=O)cc(-c2c[nH]c(=O)[nH]c2=O)cc1C(C)(C)C` [compound 3, N-((6-(3-tert-butyl-5-(2,4-dioxo-1,2,3,4-tetrahydropyrimidin-5-yl)-2-methoxyphenyl)-1H-inden-3-yl)methyl)methanesulfonamide]: the EC50 in test [3] and in test [4] was not above 0.01 µM each time. Besides, the 50% inhibitory concentration (IC50) in test [1] and in test [2] was less than 0.01 µM each time.

For `COc1c(/C=C/c2ccc(NS(C)(=O)=O)cc2)cc(-c2c[nH]c(=O)[nH]c2=O)cc1C(C)(C)C` [compound 4, (E)-N-(4-(3-tert-butyl-5-(2,4-dioxo-1,2,3,4-tetrahydropyrimidin-5-yl)-2-methoxystyryl)phenyl)methanesulfonamide], the EC50 in test [3] and in test [4] was not above 0.01 µM each time.

For the compound `COc1c(Br)cc(-c2c[nH]c(=O)[nH]c2=O)cc1C(C)(C)C` [compound 5, 5-(3-bromo-5-tert-butyl-4-methoxyphenyl)pyrimidine-2,4(1H,3H)-dione], the 50% effective concentration (EC50) in test [3] and in test [4] was more than 1 µM each time. The IC50 in test [1] and in test [2] was more than 1 µM throughout.

With `COc1c(-c2ccc3c(c2)CC=C3CNS(C)(=O)=O)cc(-c2cn(C)c(=O)[nH]c2=O)cc1C(C)(C)C` [compound 6, N-((6-(3-tert-butyl-2-methoxy-5-(1-methyl-2,4-dioxo-1,2,3,4-tetrahydropyrimidin-5-yl)phenyl)-1H-inden-3-yl)methyl)methanesulfonamide], the EC50 was 0.1 to 1 µM in test [3] and not above 0.01 µM in test [4]. For the same compound, the IC50 in test [1] is less than 0.01 µM; in test [2], 0.01 to 0.1 µM.

Take `COc1c(-c2ccc3cc(NS(C)(=O)=O)ccc3c2)cc(-c2cn(C)c(=O)[nH]c2=O)cc1C(C)(C)C` [compound 7, N-(6-(3-tert-butyl-2-methoxy-5-(1-methyl-2,4-dioxo-1,2,3,4-tetrahydropyrimidin-5-yl)phenyl)naphthalen-2-yl)methanesulfonamide]: the figures for the concentration for a half-maximal effect (EC50) in test [3] and in test [4] were 0.01 to 0.1 µM and not above 0.01 µM, respectively. Besides, the half-maximal inhibitory concentration (IC50) in test [1] was less than 0.01 µM; in test [2], 0.01 to 0.1 µM.

Turning to `COc1c(-c2ccc3cc(NS(C)(=O)=O)ccc3c2)cc(-c2cn(C)c(=O)n(C)c2=O)cc1C(C)(C)C` [compound 8, N-(6-(3-tert-butyl-5-(1,3-dimethyl-2,4-dioxo-1,2,3,4-tetrahydropyrimidin-5-yl)-2-methoxyphenyl)naphthalen-2-yl)methanesulfonamide], the half-maximal effective concentration (EC50) was in the range of 0.1 to 1 µM in test [3] and 0.01 to 0.1 µM in test [4]. Also, the IC50 in test [1] and in test [2] was 0.1 to 1 µM in each case.

On to `COc1c(-c2ccc3cc(NS(C)(=O)=O)ccc3c2)cc(-c2ccc[nH]c2=O)cc1C(C)(C)C` [compound 9, N-(6-(3-tert-butyl-2-methoxy-5-(2-oxo-1,2-dihydropyridin-3-yl)phenyl)naphthalen-2-yl)methanesulfonamide], for which the 50% effective concentration (EC50) in test [3] and in test [4] was not above 0.01 µM throughout. For the same compound, the IC50 in test [1] was less than 0.01 µM; in test [2], 0.01 to 0.1 µM.

Regarding `COc1c(-c2ccc3cc(NS(C)(=O)=O)ccc3c2)cc(-c2ccc(=O)[nH]c2)cc1C(C)(C)C` [compound 10, N-(6-(3-tert-butyl-2-methoxy-5-(6-oxo-1,6-dihydropyridin-3-yl)phenyl)naphthalen-2-yl)methanesulfonamide], the EC50 in test [3] was 0.1 to 1 µM; in test [4], more than 1 µM. The IC50 in test [1] was 0.1 to 1 µM; in test [2], more than 1 µM.

With `COc1c(-c2ccc3cc(NS(C)(=O)=O)ccc3c2)cc(-c2ccc(F)cc2F)cc1C(C)(C)C` [compound 11, N-(6-(5-tert-butyl-2′,4′-difluoro-4-methoxybiphenyl-3-yl)naphthalen-2-yl)methanesulfonamide], the concentration for half-maximal inhibition (IC50) in test [1] and in test [2] was more than 1 µM each time. In test [4], this compound came in with a concentration giving a half-maximal response (EC50) of more than 1 µM.

`COc1c(-c2ccc3c(c2)CCC3=O)cc(-c2c[nH]c(=O)[nH]c2=O)cc1C(C)(C)C` [compound 12, 5-(3-tert-butyl-4-methoxy-5-(1-oxo-2,3-dihydro-1H-inden-5-yl)phenyl)pyrimidine-2,4(1H,3H)-dione]: the concentration giving a half-maximal response (EC50) in test [3] and in test [4] was 0.1 to 1 µM in each case. Moreover, the IC50 in test [1] and in test [2] was 0.01 to 0.1 µM throughout.

As for `COc1c(-c2ccc3c(c2)CCC3O)cc(-c2c[nH]c(=O)[nH]c2=O)cc1C(C)(C)C` (stereo not drawn) [compound 13, 5-(3-tert-butyl-5-(1-hydroxy-2,3-dihydro-1H-inden-5-yl)-4-methoxyphenyl)pyrimidine-2,4(1H,3H)-dione], the EC50 in test [3] and in test [4] was more than 1 µM each time. The 50% inhibitory concentration (IC50) in test [1] and in test [2] was 0.1 to 1 µM each time.

For the compound `COc1c(-c2ccc3cc(NS(C)(=O)=O)ccc3c2)cc(NC(N)=O)cc1C(C)(C)C` [compound 14, N-(6-(3-tert-butyl-2-methoxy-5-ureidophenyl)naphthalen-2-yl)methanesulfonamide], the EC50 in test [3] is 0.1 to 1 µM; in test [4] it was 0.01 to 0.1 µM. The IC50 in test [1] is less than 0.01 µM; in test [2], 0.01 to 0.1 µM.

On to `COc1c(-c2ccc3cc(NS(C)(=O)=O)ccc3c2)cc(N2C(=O)CN=C2O)cc1C(C)(C)C` [compound 15, N-(6-(3-tert-butyl-5-(2-hydroxy-5-oxo-4,5-dihydro-1H-imidazol-1-yl)-2-methoxyphenyl)naphthalen-2-yl)methanesulfonamide], for which the 50% effective concentration (EC50) in test [3] lay within 0.1 to 1 µM; in test [4] it was 0.01 to 0.1 µM. The IC50 was less than 0.01 µM in test [1] and 0.01 to 0.1 µM in test [2].

Consider `COc1c(-c2ccc3cc(NS(C)(=O)=O)ccc3c2)cc(N2CC(=O)NC2=O)cc1C(C)(C)C` [compound 16, N-(6-(3-tert-butyl-5-(2,4-dioxoimidazolidin-1-yl)-2-methoxyphenyl)naphthalen-2-yl)methanesulfonamide], for which the EC50 in test [3] and in test [4] was 0.1 to 1 µM each time. Also, the IC50 in test [1] and in test [2] was 0.01 to 0.1 µM each time.

In the case of `COc1c(-c2ccc3cc(NS(C)(=O)=O)ccc3c2)cc(NC(=O)Nc2ccccc2)cc1C(C)(C)C` [compound 17, N-(6-(3-tert-butyl-2-methoxy-5-(3-phenylureido)phenyl)naphthalen-2-yl)methanesulfonamide], the IC50 in test [1] and in test [2] was more than 1 µM throughout.

Take `COc1c(-c2ccc3cc(NS(C)(=O)=O)ccc3c2)cc(NC(=O)NC(C)C)cc1C(C)(C)C` [compound 18, N-(6-(3-tert-butyl-5-(3-isopropylureido)-2-methoxyphenyl)naphthalen-2-yl)methanesulfonamide]: the 50% inhibitory concentration (IC50) in test [1] and in test [2] was more than 1 µM each time.

With `COc1c(-c2ccc3cc(NS(C)(=O)=O)ccc3c2)cc(NC(=O)CNC(=O)OC(C)(C)C)cc1C(C)(C)C` [compound 19, tert-butyl 2-(3-tert-butyl-4-methoxy-5-(6-(methylsulfonamido)naphthalen-2-yl)phenylamino)-2-oxoethylcarbamate], the half-maximal inhibitory concentration (IC50) in test [1] and in test [2] was more than 1 µM each time.

For the compound `COc1c(-c2ccc3cc(NS(C)(=O)=O)ccc3c2)cc(NC(=O)CN)cc1C(C)(C)C` [compound 20, 2-amino-N-(3-tert-butyl-4-methoxy-5-(6-(methylsulfonamido)naphthalen-2-yl)phenyl)acetamide], the IC50 in test [1] and in test [2] was more than 1 µM each time.

Turning to `COc1c(-c2ccc3cc(NS(C)(=O)=O)ccc3c2)cc(NC(=O)CCN)cc1C(C)(C)C` [compound 24, 3-amino-N-(3-tert-butyl-4-methoxy-5-(6-(methylsulfonamido)naphthalen-2-yl)phenyl)propanamide], the IC50 in test [1] and in test [2] was more than 1 µM throughout.

Take `COc1c(-c2ccc3cc(NS(C)(=O)=O)ccc3c2)cc(C(=O)c2ccccc2)cc1C(C)(C)C` [compound 31, N-(6-(5-benzoyl-3-tert-butyl-2-methoxyphenyl)naphthalen-2-yl)methanesulfonamide]: the IC50 in test [1] and in test [2] was more than 1 µM in each case.

`COc1c(/C=C/c2ccc(NS(C)(=O)=O)cc2)cc(C(=O)c2ccccc2)cc1C(C)(C)C` [compound 32, (E)-N-(4-(5-benzoyl-3-tert-butyl-2-methoxystyryl)phenyl)methanesulfonamide]: the IC50 in test [1] and in test [2] was more than 1 µM each time.
